Common to all, as to experiment: microbe, parasite or virus in culture
For assay [1], the system named is Pseudotyped HCV GT1a particles (HCVpp), entry into Huh7-high CD81 cells. In kind it is cell-based, HCV GT1a H77 strain. To be noted: Hepatitis C virus, 72 h, read-out: HCVpp GT-1a (EC50, μM).
In assay [2] the test system is Pseudotyped HCV GT1b particles (HCVpp), entry into Huh7-high CD81 cells. In kind it is cell-based, HCV GT1b Con1 strain. Particulars: Hepatitis C virus, GT1B, 72 h, read-out: HCVpp GT-1b (EC50, μM).
Assay [3] concerns pseudotyped VSV G particles (VSVpp) in Huh7-high CD81 cells. In kind it is cell-based, vesicular stomatitis virus. Particulars: Vesicular stomatitis virus, 72 h, read-out: VSVpp (EC50, μM).

Structures can show the parent of a compound that is named as a salt. Some results are limits rather than exact numbers.

Results on 28 molecules are retold here after patent publication US9693997B2, “Antiviral compounds” (priority 2013, dated 2017).

For orientation: EC50 means the concentration at which the effect is half-maximal.

For `Cc1ccc(-c2c(Cl)cc(Nc3n[nH]c(N)n3)cc2Cl)cc1` [Compound 97, N-3-(2,6-Dichloro-4′-methyl-biphenyl-4-yl)-1H-[1,2,4]triazole-3,5-diamine], the values for the concentration giving a half-maximal response (EC50) in assay [1], in assay [2] and in assay [3] were 0.007 µM, 0.704 µM and 9.33 µM, respectively.

As to `Nc1nc(Nc2cc(Cl)c(-c3ccc(OC(F)(F)F)cc3)c(Cl)c2)n[nH]1` [Compound 91, N-3-(2,6-Dichloro-4′-trifluoromethyoxy-biphenyl-4-yl)-1H[1,2,4]triazole-3,5-diamine], the EC50 in assay [1] stood at 0.065 µM; in assay [2], 1.13 µM; in assay [3] it was 23.3 µM.

`N#CCCCOc1ccc(-c2c(Cl)cc(Nc3n[nH]c(N)n3)cc2Cl)cc1` [Compound 26, 4-[4′-(5-Amino-1H-[1,2,4]triazol-3-ylamino)-2′,6′-dichloro-biphenyl-4-yloxy]-butyronitrile]: the 50% effective concentration (EC50) turned out to be 0.008 µM in assay [1], 0.116 µM in assay [2] and 3.79 µM in assay [3].

As to `COc1cc(-c2c(Cl)cc(Nc3n[nH]c(N)n3)cc2C(F)(F)F)ccc1S(=O)(=O)NC(C)(C)C` [Compound 179, 4′-(5-amino-1H-1,2,4-triazol-3-ylamino)-N-tert-butyl-2′-chloro-3-methoxy-6′-(trifluoromethyl)biphenyl-4-sulfonamide], the concentration for a half-maximal effect (EC50) came out at 0.002 µM in assay [1], 0.02 µM in assay [2] and 8.55 µM in assay [3].

Turning to `CS(=O)(=O)NCc1ccc(-c2c(Cl)cc(Nc3n[nH]c(N)n3)cc2C(F)(F)F)cc1` [Compound 186, N-((4′-(5-amino-1H-1,2,4-triazol-3-ylamino)-2′-chloro-6′-(trifluoromethyl)biphenyl-4-yl)methyl)methanesulfonamide], the EC50 in assay [1] came to 0.011 µM; in assay [2] it was 0.038 µM; in assay [3], 19.7 µM.

On to `COc1ccc(-c2c(Cl)cc(Nc3n[nH]c(N)n3)cc2Cl)cc1` [Compound 98, N-3-(2,6-Dichloro-4′-methoxy-biphenyl-4-yl)-1H-[1,2,4]triazole-3,5-diamine], for which the figures for the half-maximal effective concentration (EC50) in assay [1], in assay [2] and in assay [3] were 0.01 µM, 0.353 µM and 5.25 µM, respectively.

Turning to `CS(=O)(=O)c1ccc(-c2c(Cl)cc(Nc3n[nH]c(N)n3)cc2C(F)(F)F)cc1` [Compound 187, N3-(2-chloro-4′-(methylsulfonyl)-6-(trifluoromethyl)biphenyl-4-yl)-1H-1,2,4-triazole-3,5-diamine], the EC50 came out at 0.016 µM in assay [1], 0.046 µM in assay [2] and 1.58 µM in assay [3].

As for `Nc1nc(Nc2ccc(-c3ccccc3)c(Cl)c2)n[nH]1` [Compound 144, N*3*-(2-Chloro-biphenyl-4-yl)-1H-[1,2,4]triazole-3,5-diamine], the EC50 came to 0.333 µM in assay [1], 2.92 µM in assay [2] and 34.8 µM in assay [3].

As to `CN(C)S(=O)(=O)c1ccc(-c2c(Cl)cc(Nc3n[nH]c(N)n3)cc2C(F)(F)F)cc1` [Compound 185, 4′-(5-amino-1H-1,2,4-triazol-3-ylamino)-2′-chloro-N,N-dimethyl-6′-(trifluoromethyl)biphenyl-4-sulfonamide], the figures for the 50% effective concentration (EC50) in assay [1], in assay [2] and in assay [3] were 0.015 µM, 0.052 µM and 11.7 µM, respectively.

As for `CS(=O)(=O)Nc1ccc(-c2c(F)cc(Nc3nc(N)n[nH]3)cc2C(F)(F)F)cc1` [Compound 242, N-[4′-(5-Amino-2H-[1,2,4]-triazol-3-ylamino)-6′-fluoro-2′-trifluoromethyl-biphenyl-4-yl]-methanesulfonamide], the results for the EC50 in assay [1], in assay [2] and in assay [3] were 0.061 µM, 0.113 µM and above 10 µM, respectively.

`CN(C)S(=O)(=O)c1ccc(-c2c(F)cc(Nc3n[nH]c(N)n3)cc2Cl)cc1` [Compound 34, 4′-(5-Amino-1H-[1,2,4]triazol-3-ylamino)-2′-chloro-6′-fluoro-biphenyl-4-sulfonic acid dimethylamide]: the EC50 is 0.028 µM in assay [1], 0.122 µM in assay [2] and above 10 µM in assay [3].

For `CS(=O)(=O)c1cccc(-c2c(F)cc(Nc3nc(N)n[nH]3)cc2C(F)(F)F)c1` [Compound 74, N^5-(2-Fluoro-3′-(methylsulfonyl)-6-trifluoromethylbiphenyl-4-yl)-1H-[1,2,4]-triazole-3,5-diamine], the concentration giving a half-maximal response (EC50) in assay [1] amounted to 0.055 µM; in assay [2], 0.169 µM; in assay [3] it was 16.9 µM.

As to `CS(=O)(=O)Nc1cccc(-c2c(Cl)cc(Nc3n[nH]c(N)n3)cc2Cl)c1` [Compound 112, N-[4′-(5-Amino-1H-[1,2,4]triazol-3-ylamino)-2′,6′-dichloro-biphenyl-3-yl]-methanesulfonamide], the figures for the half-maximal effective concentration (EC50) in assay [1], in assay [2] and in assay [3] were 0.006 µM, 0.048 µM and 15.3 µM, respectively.

`Nc1nc(Nc2cc(Cl)c(-c3ccc(OCC4CNC4)cc3)c(Cl)c2)n[nH]1` [Compound 32, N*3*-[4′-(Azetidin-3-ylmethoxy)-2,6-dichloro-biphenyl-4-yl]-1H-[1,2,4]triazole-3,5-diamine; hydrochloride]: the EC50 came out at 0.006 µM in assay [1], 0.116 µM in assay [2] and 6.1 µM in assay [3].

Regarding `CC(=O)c1ccc(-c2c(Cl)cc(Nc3n[nH]c(N)n3)cc2Cl)cc1` [Compound 107, 1-[4′-(5-Amino-1H-[1,2,4]triazol-3-ylamino)-2′,6′-dichloro-biphenyl-4-yl]-ethanone], the EC50 in assay [1] is 0.008 µM; in assay [2] it was 0.228 µM; in assay [3] it was 11.1 µM.

Turning to `Nc1nc(Nc2cc(Cl)c(-c3ccccc3Cl)c(Cl)c2)n[nH]1` [Compound 101, N-3-(2,6,2′-Trichloro-biphenyl-4-yl)-1H-[1,2,4]triazole-3,5-diamine], the EC50 in assay [1] turned out to be 0.037 µM; in assay [2], 0.514 µM; in assay [3], 13.2 µM.

In the case of `Nc1nc(Nc2ccc(-c3ccc(F)cc3)c(Cl)c2)n[nH]1` [Compound 145, N*3*-(2-Chloro-4′-fluoro-biphenyl-4-yl)-1H-[1,2,4]triazole-3,5-diamine], the results for the EC50 in assay [1], in assay [2] and in assay [3] were 0.532 µM, 6.02 µM and 39.1 µM, respectively.

As to `CS(=O)(=O)Cc1ccc(-c2c(Cl)cc(Nc3n[nH]c(N)n3)cc2Cl)cc1` [Compound 31, N*3*-(2,6-Dichloro-4′-methanesulfonylmethyl-biphenyl-4-yl)-1H-[1,2,4]triazole-3,5-diamine], the figures for the EC50 in assay [1], in assay [2] and in assay [3] were 0.004 µM, 0.086 µM and 3.23 µM, respectively.

As for `CS(=O)(=O)NCc1ccc(-c2c(Cl)cc(Nc3n[nH]c(N)n3)cc2Cl)cc1` [Compound 12, N-[4′-(5-Amino-1H-[1,2,4]triazol-3-ylamino)-2′,6′-dichloro-biphenyl-4-ylmethyl]-methanesulfonamide], the concentration for a half-maximal effect (EC50) in assay [1] turned out to be 0.003 µM; in assay [2], 0.035 µM; in assay [3], 18.3 µM.

As to `Nc1nc(Nc2ccc(-c3ccc(F)c(F)c3)c(Cl)c2)n[nH]1` [Compound 147, N*3*-(2-Chloro-3′,4′-difluoro-biphenyl-4-yl)-1H-[1,2,4]triazole-3,5-diamine], the values for the EC50 in assay [1], in assay [2] and in assay [3] were 0.621 µM, 6.12 µM and 47.2 µM, respectively.

For `Nc1nc(Nc2cc(Cl)c(-c3ccc(Cl)c(Cl)c3)c(Cl)c2)n[nH]1` [Compound 102, N-3-(2,6,3′,4′-Tetrachloro-biphenyl-4-yl)-1H-[1,2,4]triazole-3,5-diamine], the figures for the EC50 in assay [1], in assay [2] and in assay [3] were 0.062 µM, 0.931 µM and 6.33 µM, respectively.

For the molecule `Nc1nc(Nc2cc(Cl)c(-c3ccc(S(=O)(=O)N4CCNCC4)cc3)c(C(F)(F)F)c2)n[nH]1` [Compound 33, N*3*-[2-Chloro-4′-(piperazine-1-sulfonyl)-6-trifluoromethyl-biphenyl-4-yl]-1H-[1,2,4]triazole-3,5-diamine], the concentration giving a half-maximal response (EC50) in assay [1] is 0.019 µM; in assay [2], 0.099 µM; in assay [3], 34.3 µM.

On to `CC(C)(C)OC(=O)N1CCC(S(=O)(=O)c2ccc(-c3c(Cl)cc(Nc4n[nH]c(N)n4)cc3C(F)(F)F)cc2)CC1` [Compound 1, 4-[4′-(5-Amino-1H-[1,2,4]triazol-3-ylamino)-2′-chloro-6′-trifluoromethyl-biphenyl-4-sulfonyl]-piperidine-1-carboxylic acid tert-butyl ester], for which the concentration giving a half-maximal response (EC50) was 0.014 µM in assay [1], 0.001 µM in assay [2] and above 10 µM in assay [3].

For the molecule `CS(=O)(=O)c1ccc(-c2c(Cl)cc(Nc3n[nH]c(N)n3)cc2Cl)cc1` [Compound 94, N3-(2,6-Dichloro-4′-(methylsulfonyl)biphenyl-4-yl)-1H-1,2,4-triazole-3,5-diamine], the EC50 in assay [1] worked out at 0.007 µM; in assay [2], 0.174 µM; in assay [3], 2 µM.

As for `Nc1nc(Nc2cc(Cl)c(-c3ccc(NC(=O)CN4CCS(=O)(=O)CC4)cc3)c(C(F)(F)F)c2)n[nH]1` [Compound 240], the EC50 in assay [1] is 0.011 µM; in assay [2] it was 0.171 µM; in assay [3], above 10 µM.

With `Nc1nc(Nc2cc(Cl)c(-c3ccc(S(=O)(=O)N[C@H]4C[C@H](O)C4)cc3)c(C(F)(F)F)c2)n[nH]1` [Compound 173, 4′-(5-amino-1H-1,2,4-triazol-3-ylamino)-2′-chloro-N-(trans-3-hydroxycyclobutyl)-6′-(trifluoromethyl)biphenyl-4-sulfonamide], the figures for the EC50 in assay [1], in assay [2] and in assay [3] were 0.007 µM, 0.019 µM and above 10 µM, respectively.

On to `CN(C)S(=O)(=O)c1ccc(-c2c(Cl)cc(Nc3n[nH]c(N)n3)cc2Cl)cc1` [Compound 123, 4′-(5-Amino-1H-[1,2,4]triazol-3-ylamino)-2′,6′-dichloro-biphenyl-4-sulfonic acid dimethylamide], for which the EC50 in assay [1] worked out at 0.002 µM; in assay [2], 0.042 µM; in assay [3], 11 µM.

In the case of `Nc1nc(Nc2cc(Cl)c(-c3ccc4c(c3)CC(=O)N4)c(Cl)c2)n[nH]1` [Compound 254], the 50% effective concentration (EC50) in assay [1] is 0.003 µM; in assay [2], 0.051 µM; in assay [3] it was 12.9 µM.
